Tests used:
[1] = system: MDA-MB-157; experiment: antiproliferative effect (GI50), breast cancer cell line; assay type: cell-based; conditions: Homo sapiens
[2] = system: BT20; experiment: as above; assay type: cell-based; conditions: Homo sapiens, BT-20
[3] = system: MDA-MB-231; experiment: as above; assay type: cell-based; conditions: Homo sapiens
[4] = system: SkBr3; experiment: as above; assay type: cell-based; conditions: Homo sapiens, SK-BR-3
[5] = molecular target: HSP90-p23 complex (Homo sapiens, UniProt P07900)
Procedure: For immunoprecipitation, 300 μg of total protein was immunoprecipitated with 5 μg of rat anti-HSP90α monoclonal antibody (SPA-840, clone 9D2, isotype: IgG2a; Assay Designs, Inc.). Proteins were resolved by 12% SDS-PAGE and transferred to PVDF membranes.

[6] = system: MCF-7; experiment: antiproliferative effect (GI50), breast cancer cell line; assay type: cell-based; conditions: Homo sapiens, MCF7
[7] = system: MDA-MB-468; experiment: as above; assay type: cell-based; conditions: Homo sapiens
[8] = system: BT-474; experiment: as above; assay type: cell-based; conditions: Homo sapiens

## C=CCNC1=C2C[C@@H](C)C[C@H](OC)[C@H](O)[C@@H](C)/C=C(\C)[C@H](OC(N)=O)[C@@H](OC)/C=C\C=C(/C)C(=O)NC(=CC1=O)C2=O [17-AAG, 17-allylamino-17-demethoxygeldanamycin, reference compound]
[1]
  GI50: 29.5 ± 20.8 nM
[2]
  GI50: 18.9 ± 4.8 nM
[3]
  GI50: 2060 nM
[4]
  GI50: 11.9 ± 8 nM
[5]
  amount of HSP90α co-immunoprecipitating with p23: concentration-dependent decrease
  time to complete HSP90-p23 dissociation (full inhibition): ≤ 15 min
[6]
  GI50: 69 ± 18.3 nM
[7]
  GI50: 1660 nM
[8]
  GI50: 17.4 ± 5.2 nM
